From patent US20100093747A1, “METHOD OF INDUCING NEGATIVE CHEMOTAXIS” (priority 2008, published 2010)
Marks after values point to notes of the source that are not given here.

system: human neutrophils; test: Chemorepulsion (negative chemotaxis) of neutrophils in Neuroprobe ChemoTx plates, migrated cells quantified with Cell Titer Glo; assay type: cell-based; conditions: 0.048, 0.48, 4.8 or 48 uM; FIGS. 1A, 1B and 1C
Procedure: Prior to beginning the assay, the following were prepared: • a. 0.5% Fetal Calf Serum (FCS) in Iscove's Modified Dulbecco's Medium (IMDM) (Assay Medium) (Both from ATCC). • b. Migratory cells at a concentration of 2×10^7 cells/ml in Assay Medium. • c. Four serial (10-fold) dilutions of the ligand of interest in Assay Medium. All stocks were diluted initially 1:100 into Assay Medium and subsequently made into 10 fold dilutions (100 uM, 10 uM, 1 uM, 0.1 uM). […] The same dilutions were followed. • 2. […] The plates were removed from packaging, leaving the membrane behind. • 4. 31 μl of the following solutions were pipetted into each well: • a. For media controls and for chemorepulsion samples, Assay Medium was used. • b. For chemoattraction samples, appropriate dilution of ligand was used. • 5. A sterile needle was used to pop any and all small bubbles present in each well. • 6. The membrane was carefully placed onto the plate, starting at one side and then slowly lowering the other edge onto the plate. • 7. 29 μl of the following were pipetted onto the top of each circle: • a. For media controls and chemoattraction samples, use Assay Medium. • b. For chemorepulsion samples, use the appropriate dilution of ligand. • 8. 2 μl of cells (40,000 cells) were added to each bubble of liquid from step 7. • 9. A needle was used to pop all air bubbles. • 10. The plate was covered with the supplied lid and incubated for the desired time at 37° C. in 5% CO2. Unless otherwise indicated, the incubation time was 1 hour for neutrophils and 3 hours for T cells. For monocytes and B cells, the incubation time was 2 hours. • 11. After the desired assay time, the liquid was removed from the top of the plate using a Kimwipe. At this point, the plate was stored (with the membrane in place) for up to 2 hours at 4° C. • 12. The membrane was carefully removed from the top of the plate and discard. The plate was examined under a microscope to look for ligand crystallization, contamination and overall migration. • 13. White read plates were preloaded with 25 ul PBS. • 14. Using a multichannel pipettor, 5 ul of Cell Titer Glo (Promega # G7572) was added to each well. • 15. Using a multichannel pipettor set at 30 ul, lysed cell solution was transferred to white read plates pre-loaded with PBS. • 16. The plate was read using the BioTek Synergy4 plate reader in order to quantify the number of migrated cells.
Compounds from the chemical analog library were screened once in CR mode as described.

| Compound | chemorepulsion of neutrophils in response to the compound |
| --- | --- |
| COc1ccc2nc([S@@+]([O-])Cc3ncc(C)c(OC)c3C)[nH]c2c1 [esomeprazole, reference compound] | showed chemorepulsion |

same assay, conditions: neutrophils, four 10-fold dilutions

| Compound | dose dependence of the induction of chemotaxis / chemorepulsion |
| --- | --- |
| COc1ccc2nc([S@@+]([O-])Cc3ncc(C)c(OC)c3C)[nH]c2c1 [esomeprazole, reference compound] | dose-dependent |

same assay, conditions: neutrophils, methods of Example 1

| Compound | chemorepulsion class mark in Tables 1-4 |
| --- | --- |
| COc1ccc2[nH]c(SCc3ccc(Cl)cc3)nc2c1 [Compound 11] | 11* (Compounds that showed chemorepulsion that was at least 3-fold greater than media) |
| O=C(CSc1nc2cc([N+](=O)[O-])ccc2[nH]1)Nc1ccccc1F [Compound 12] | 12* (Compounds that showed chemorepulsion that was at least 3-fold greater than media) |
| COc1ccc2[nH]c(SCC(=O)NCc3ccccc3)nc2c1 [Compound 15] | 15* (Compounds that showed chemorepulsion that was at least 3-fold greater than media) |
| COc1ccc2[nH]c(SCC(=O)Nc3ccccc3F)nc2c1 [Compound 16] | 16* (Compounds that showed chemorepulsion that was at least 3-fold greater than media) |
| COc1ccc2[nH]c(SCC(=O)Nc3nc4ccc(OC)cc4s3)nc2c1 [Compound 17] | 17* (Compounds that showed chemorepulsion that was at least 3-fold greater than media) |
| COc1ccc2[nH]c(SCC(=O)c3cc(C(C)(C)C)c(O)c(C(C)(C)C)c3)nc2c1 [Compound 20] | 20* (Compounds that showed chemorepulsion that was at least 3-fold greater than media) |
| COc1ccc(C(=O)CSc2nc3cc(OC)ccc3[nH]2)cc1 [Compound 21] | 21* (Compounds that showed chemorepulsion that was at least 3-fold greater than media) |
| COc1ccc2[nH]c(SCc3ccc(Cl)c(Cl)c3)nc2c1 [Compound 22] | 22* (Compounds that showed chemorepulsion that was at least 3-fold greater than media) |
| COc1ccc2[nH]c(SCC(=O)c3ccc4c(c3)OCO4)nc2c1 [Compound 23] | 23* (Compounds that showed chemorepulsion that was at least 3-fold greater than media) |
| COc1ccc(NC(=O)CSc2nc3cc([N+](=O)[O-])ccc3[nH]2)c(OC)c1 [Compound 33] | 33* (Compounds that showed chemorepulsion that was at least 3-fold greater than media) |
| COc1ccc2[nH]c(SCC(=O)Nc3ccc4c(c3)OCO4)nc2c1 [Compound 36] | 36* (Compounds that showed chemorepulsion that was at least 3-fold greater than media) |
| COc1ccc2[nH]c(SCC(=O)Nc3cc(Cl)ccc3OC)nc2c1 [Compound 37] | 37* (Compounds that showed chemorepulsion that was at least 3-fold greater than media) |
| COc1ccc2[nH]c(SCC(=O)Nc3ccc(Br)cc3)nc2c1 [Compound 38] | 38* (Compounds that showed chemorepulsion that was at least 3-fold greater than media) |
| COc1ccc2[nH]c(SCC(=O)Nc3ccccc3Br)nc2c1 [Compound 39] | 39* (Compounds that showed chemorepulsion that was at least 3-fold greater than media) |
| COc1ccc2[nH]c(SCC(=O)Nc3ccc(Cl)cc3)nc2c1 [Compound 40] | 40* (Compounds that showed chemorepulsion that was at least 3-fold greater than media) |
| COc1ccc2[nH]c(SCC(=O)Nc3ccccc3[N+](=O)[O-])nc2c1 [Compound 41] | 41* (Compounds that showed chemorepulsion that was at least 3-fold greater than media) |
| COc1ccc2[nH]c(SCC(=O)Nc3ccc([N+](=O)[O-])cc3)nc2c1 [Compound 42] | 42* (Compounds that showed chemorepulsion that was at least 3-fold greater than media) |

| Compound | chemorepulsion class mark in Tables 1-4 |
| --- | --- |
| COc1ccc2[nH]c(SCC(=O)Nc3cc(NC(=O)CSc4nc5cc(OC)ccc5[nH]4)cc(C(=O)O)c3)nc2c1 [Compound 43] | 43* (Compounds that showed chemorepulsion that was at least 3-fold greater than media) |
| COc1ccc2[nH]c(SCc3cccc(I)c3)nc2c1 [Compound 45] | 45* (Compounds that showed chemorepulsion that was at least 3-fold greater than media) |
| COc1ccc2[nH]c(Sc3c(-c4ccccc4)c4cc(Cl)ccc4[nH]c3=O)nc2c1 [Compound 54] | 54* (Compounds that showed chemorepulsion that was at least 3-fold greater than media) |
| CCOc1ccc2[nH]c(SCC(=O)Nc3ccc(O)c(C(=O)O)c3)nc2c1 [Compound 58] | 58* (Compounds that showed chemorepulsion that was at least 3-fold greater than media) |
| O=C(CSc1nc2cc([N+](=O)[O-])ccc2[nH]1)Nc1ccc(O)c(C(=O)O)c1 [Compound 59] | 59* (Compounds that showed chemorepulsion that was at least 3-fold greater than media) |
| CCOc1ccc2[nH]c(SCC(=O)Nc3nccs3)nc2c1 [Compound 60] | 60* (Compounds that showed chemorepulsion that was at least 3-fold greater than media) |
| CCOc1ccc2[nH]c(SCC(=O)N(c3ccccc3)C(C)C)nc2c1 [Compound 62] | 62* (Compounds that showed chemorepulsion that was at least 3-fold greater than media) |
| CCOc1ccc2[nH]c(SCC(=O)Nc3ccccc3)nc2c1 [Compound 63] | 63* (Compounds that showed chemorepulsion that was at least 3-fold greater than media) |
| COc1ccc2[nH]c(SCC(=O)Nc3ccon3)nc2c1 [Compound 79] | 79* (Compounds that showed chemorepulsion that was at least 3-fold greater than media) |
| COc1ccc2[nH]c(SCc3cnc(C)nc3N)nc2c1 [Compound 80] | 80* (Compounds that showed chemorepulsion that was at least 3-fold greater than media) |
| COc1ccc2[nH]c(Sc3ccc(C(F)(F)F)cc3[N+](=O)[O-])nc2c1 [Compound 88] | 88* (Compounds that showed chemorepulsion that was at least 3-fold greater than media) |
| COc1ccc2[nH]c(Sc3c(-c4ccccc4)c4ccc(Cl)cc4[nH]c3=O)nc2c1 [Compound 99] | 99* (Compounds that showed chemorepulsion that was at least 3-fold greater than media) |
| COc1ccc2[nH]c(N3CCCC(C(=O)NCCc4ccc(Cl)cc4)C3)nc2c1 (stereo not shown) [Compound 128] | 128* (Compounds that showed chemorepulsion that was at least 3-fold greater than media) |
| O=[N+]([O-])c1ccc2nc(-c3cn4ccsc4n3)sc2c1 [Compound 132] | 132* (Compounds that showed chemorepulsion that was at least 3-fold greater than media) |
| CSc1nc2cc(Cl)c(Oc3ccc4ccccc4c3Br)cc2[nH]1 [Compound 136] | 136* (Compounds that showed chemorepulsion that was at least 3-fold greater than media) |
| COc1ccc2[nH]c(N3CCCC(C(=O)NCCc4ccccc4)C3)nc2c1 (stereo not shown) [Compound 157] | 157* (Compounds that showed chemorepulsion that was at least 3-fold greater than media) |

same assay, conditions: neutrophils, omeprazole 0.1, 1, 10 and 100 uM, FIG. 2

| Compound | chemorepulsion relative to cells treated with media alone |
| --- | --- |
| COc1ccc2[nH]c([S+]([O-])Cc3ncc(C)c(OC)c3C)nc2c1 (stereo not shown) [omeprazole, reference compound] | greater than 5 fold |

same assay, conditions: neutrophils, rabeprazole at 106 uM, FIG. 59

| Compound | chemorepulsion over media |
| --- | --- |
| COCCCOc1ccnc(C[S+]([O-])c2nc3ccccc3[nH]2)c1C (stereo not shown) [rabeprazole, reference compound] | greater than 3 fold |
